Data taken from the supplement of paper PMC10331698.
± gives the standard deviation of the averaged measurements.

Assays:
Assay in all cases: LOEC (log10 uM (lowest observed effect concentration))
Perfluorooctanoic acid = compound: O=C(O)C(F)(F)C(F)(F)C(F)(F)C(F)(F)C(F)(F)C(F)(F)C(F)(F)F [Perfluorooctanoic acid]
Experimental: (§1)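 BioMAP Diversity Plus panel in human primary cell co-cultures, 4 concentrations in duplicate blinded samples. Responses are log10 fold change versus DMSO control, processed with tcpl v2.1.0. A hit is called when responses at any concentration exceed the cutoff (the larger of 3*bmad or log10(1.2)); the lowest observed effect concentration (modl_ga, log10 uM) is reported for hits.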

[1] = compound: OCC(F)(F)C(F)(F)C(F)(F)C(F)(F)C(F)(F)C(F)(F)C(F)(F)C(F)(F)CO [1H,1H,10H,10H-Perfluorodecane-1,10-diol]
Experimental: as §1

[2] = compound: OCCC(F)(F)C(F)(F)C(F)(F)C(F)(F)C(F)(F)C(F)(F)C(F)(F)C(F)(F)F [8:2 Fluorotelomer alcohol]
Experimental: as §1

[3] = compound: C=CC(=O)OCC(F)(F)C(F)(F)C(F)(F)C(F)(F)COC(=O)C=C [1H,1H,6H,6H-Perfluorohexane-1,6-diol diacrylate]
Experimental: as §1

[4] = compound: FC(F)(I)C(F)(F)C(F)(F)C(F)(F)C(F)(F)C(F)(F)I [1,6-Diiodoperfluorohexane]
Experimental: as §1

[5] = compound: OCCCC(F)(F)C(F)(F)C(F)(F)C(F)(F)C(F)(F)C(F)(F)C(F)(F)C(F)(F)F [3-(Perfluorooctyl)propanol]
Experimental: as §1

Perfluoropinacol = compound: OC(C(F)(F)F)(C(F)(F)F)C(O)(C(F)(F)F)C(F)(F)F [Perfluoropinacol]
Experimental: as §1

[6] = compound: OCC(F)(F)C(F)(F)C(F)(F)C(F)(F)C(F)(F)C(F)(F)F [6:1 Fluorotelomer alcohol]
Experimental: as §1

[7] = compound: C=CC(=O)OCC(F)(F)C(F)(F)C(F)(F)C(F)(F)C(F)(F)C(F)(F)C(F)(F)C(F)F [1H,1H,9H-Perfluorononyl acrylate]
Experimental: as §1

[8] = compound: OCC(F)(F)C(F)(F)C(F)(F)C(F)(F)C(F)(F)C(F)(F)C(F)(F)C(F)(F)C(F)(F)C(F)(F)C(F)(F)F [11:1 Fluorotelomer alcohol]
Experimental: as §1

[9] = compound: O=C(CC(=O)C(F)(F)C(F)(F)C(F)(F)F)c1cccs1 [(Perfluorobutyryl)-2-thenoylmethane]
Experimental: as §1

[10] = compound: Cc1ccc(S(=O)(=O)OCC(F)(F)C(F)(F)C(F)(F)C(F)(F)C(F)(F)C(F)F)cc1 [1H,1H,7H-Perfluoroheptyl 4-methylbenzenesulfonate]
Experimental: as §1

[11] = compound: FC(F)(F)C(F)(F)C(F)(F)C(F)(F)CCI [1H,1H,2H,2H-Perfluorohexyl iodide]
Experimental: as §1

[12] = compound: O=C(O)C(F)(F)C(F)(F)C(F)(F)C(F)(F)C(F)(F)C(F)(F)C(F)(F)F [Ammonium perfluorooctanoate]
Experimental: as §1

Methotrexate = compound: CN(Cc1cnc2nc(N)nc(N)c2n1)c1ccc(C(=O)N[C@@H](CCC(=O)O)C(=O)O)cc1 [Methotrexate]
Experimental: as §1

Row | Test System | LOEC (log10 uM) (Perfluorooctanoic acid) | LOEC (log10 uM) [1] | LOEC (log10 uM) [2] | LOEC (log10 uM) [3] | LOEC (log10 uM) [4] | LOEC (log10 uM) [5] | LOEC (log10 uM) (Perfluoropinacol) | LOEC (log10 uM) [6] | LOEC (log10 uM) [7] | LOEC (log10 uM) [8] | LOEC (log10 uM) [9] | LOEC (log10 uM) [10] | LOEC (log10 uM) [11] | LOEC (log10 uM) [12] | LOEC (log10 uM) (Methotrexate)
1 | 3C IL8 up | 1.78 |  |  |  |  |  |  |  |  |  |  |  |  |  | 
2 | 3C Proliferation down |  | 1.04 ± 1 | 1.3 | 0.573 ± 0.39 | 1.3 | 0.845 | 0.845 | 1.78 | 1.3 | -0.96 ± 0.37 | 0.845 |  |  |  | 
3 | 3C SRB down |  |  | 1.3 | 1.3 | 1.3 | 1.3 | 1.3 |  |  | -0.222 | 1.3 | 1.78 |  |  | 
4 | 3C Thrombomodulin down |  |  |  |  |  | 1.78 |  |  | 1.54 ± 0.34 |  |  |  |  |  | 
5 | 4H Eotaxin3 down |  |  | 1.54 ± 0.34 | 1.3 | 1.3 | 1.3 | 1.3 |  |  |  | 1.3 |  | 1.78 |  | 
6 | 4H Pselectin down |  |  | 1.3 | 1.07 ± 0.32 | 1.3 | 1.3 | 1.3 | 1.78 |  |  | 1.3 |  |  |  | 
7 | 4H Pselectin up |  |  |  |  |  |  |  |  |  |  |  | 1.78 |  |  | 
8 | BE3C HLADR down |  | 1.3 | 1.3 | 1.3 | 1.54 ± 0.34 | 1.78 | 1.78 |  |  | -0.46 ± 0.34 | 1.3 |  |  |  | 
9 | BE3C IL8 down |  | 1.54 ± 0.34 | 1.3 | 1.3 | 1.78 | 1.3 | 1.3 |  |  | -0.222 | 1.78 |  |  |  | 
10 | BE3C IP10 down | 1.78 | 1.3 | 1.07 ± 0.32 | 1.78 | 1.54 ± 0.34 | 1.3 | 1.3 |  |  |  | 1.3 |  |  | 1.78 | 
11 | BE3C MIG down |  | 1.78 | 1.54 ± 0.34 | 1.78 | 1.78 | 1.78 | 1.78 | 1.78 |  |  | 1.3 |  |  |  | 
12 | BE3C MMP1 up | 1.78 |  |  | 1.3 |  |  |  |  |  |  |  |  |  | 1.3 | 
13 | BE3C MMP9 down |  | 1.78 | 1.3 | 1.54 ± 0.34 | 1.78 | 1.78 | 1.78 |  |  | -0.222 | 1.3 |  |  |  | 
14 | BF4T Eotaxin3 down |  | 1.78 | 1.3 | 1.78 | 1.3 | 1.54 ± 0.34 | 1.3 |  |  |  | 0.845 |  |  |  | 
15 | BF4T MCP1 down |  | 1.07 ± 0.32 | 1.3 | 1.3 | 0.845 | 1.3 | 1.78 |  |  |  | 1.07 ± 0.32 | 1.3 |  |  | 
16 | BF4T VCAM1 down |  | 1.3 | 1.07 ± 0.32 | 0.845 | 1.3 | 1.3 | 1.78 |  |  |  | 1.3 |  |  |  | 

Row | Test System | LOEC (log10 uM) (Perfluorooctanoic acid) | LOEC (log10 uM) [1] | LOEC (log10 uM) [2] | LOEC (log10 uM) [3] | LOEC (log10 uM) [4] | LOEC (log10 uM) [5] | LOEC (log10 uM) (Perfluoropinacol) | LOEC (log10 uM) [6] | LOEC (log10 uM) [7] | LOEC (log10 uM) [8] | LOEC (log10 uM) [9] | LOEC (log10 uM) [10] | LOEC (log10 uM) [11] | LOEC (log10 uM) [12] | LOEC (log10 uM) (Methotrexate)
17 | BF4T tPA down | 1.31 ± 0.66 | 1.3 | 1.07 ± 0.32 | 1.3 | 0.845 | 1.3 |  |  |  |  | 0.573 ± 0.39 |  |  |  | 
18 | BT Bcell Proliferation down |  | 1.78 | 1.78 | 0.845 | 1.54 ± 0.34 | 1.3 | 1.54 ± 0.34 |  | 1.78 | -0.96 ± 0.37 | 1.3 |  |  |  | 0
19 | BT Bcell Proliferation up | 1.78 |  |  |  |  |  |  |  |  |  |  |  |  |  | 
20 | BT PBMCCytotoxicity down |  | 1.78 | 1.54 ± 0.34 | 0.845 | 1.78 | 1.54 ± 0.34 | 1.78 |  | 1.3 | -0.199 ± 0.71 | 1.78 |  |  |  | 
21 | BT PBMCCytotoxicity up | 1.78 |  |  |  |  |  |  |  |  |  |  |  |  |  | 
22 | BT sIgG down |  | 1.78 | 1.78 | 0.845 | 1.78 | 1.78 | 0.845 |  |  |  | 1.3 |  |  |  | 0
23 | BT xIL2 down |  | 1.78 | 1.3 | 0.845 | 1.54 ± 0.34 | 1.78 | 1.78 |  |  |  | 1.78 |  |  |  | 
24 | BT xIL6 down |  | 1.78 | 1.78 | 0.845 | 1.78 | 1.54 ± 0.34 |  |  | 1.54 ± 0.34 |  | 1.54 ± 0.34 |  |  |  | 
25 | BT xIL17A down |  | 1.78 | 1.78 | 0.845 | 1.78 | 1.3 | 1.3 |  | 1.54 ± 0.34 |  | 1.3 |  |  |  | 
26 | BT xIL17F down |  | 1.78 | 1.78 | 0.573 ± 0.39 | 1.54 ± 0.34 | 1.3 | 1.54 ± 0.34 | 1.78 | 1.3 |  | 1.3 |  |  |  | 
27 | BT xIL17F up |  |  |  |  |  |  |  |  |  | -1.22 |  |  |  |  | 
28 | BT xTNFa down |  | 1.78 | 1.54 ± 0.34 | 0.301 | 1.3 | 1.3 | 1.78 | 1.78 | 1.3 |  | 1.3 |  |  |  | 
29 | CASM3C Proliferation down |  | 1.78 | 1.3 | 1.3 | 0.845 | 1.3 | 1.3 | 1.78 |  |  | 0.801 ± 0.71 |  |  |  | 
30 | CASM3C VCAM1 down |  | 1.78 | 1.07 ± 0.32 | 0.845 | 1.3 | 1.07 ± 0.32 | 1.78 |  | 1.07 ± 0.32 |  | 1.54 ± 0.34 |  |  |  | 
31 | IMphg CD40 down |  | 1.54 ± 0.34 | 1.78 | 1.3 | 1.3 | 1.3 | 1.3 |  |  | 0.301 | 1.3 |  |  |  | 
32 | IMphg CD69 down |  | 1.78 | 1.54 ± 0.34 | 1.78 | 1.78 | 1.78 | 1.07 ± 0.32 |  |  |  | 0.845 |  |  |  | 
